Tests used:
PC-3 cells = test: MTT assay, PC-3 cells; type: cell-based, human; conditions: prostate cancer cells, 48 h of treatment, mean ± SD
Protocol: (§1) The human prostate cancer cell lines PC-3, DU145, 22Rv1 and LNCaP, as well as human prostate non-cancer cell line PNT2 were purchased from ATCC (Manassas, VA, USA). HEK 293T (human embryonic kidney cells) and MRC-9 (human fibroblast cells) cell lines were purchased from ECACC (Salisbury, UK). […] Authentication of all cell lines used was recently performed by a commercial service (Multiplexion GmbH, Heidelberg, Germany).
(§2) Cells were cultured as monolayers at 37 °C in a humidified atmosphere with 5% (v/v) CO2 in the correspondent culture medium: 10% FBS/RPMI medium (RPMI medium supplemented with Glutamax^TM-I (gibco® Life technologies^TM, Paisley, UK) containing 10% fetal bovine serum (FBS, gibco® Life technologies^TM) and 1% penicillin/streptomycin (Invitrogen)) for PNT2, LNCaP, 22Rv1, PC-3 and DU145 and cells; 10% FBS/DMEM medium (DMEM medium supplemented with Glutamax^TM-I (gibco® Life technologies^TM) containing 10% FBS and 1% penicillin/streptomycin (gibco® Life technologies^TM)) for MRC-9 and HEK 293 cells. Cells were continuously kept in culture for a maximum of 3 months, and were regularly checked for stable phenotype and mycoplasma infection.
(§3) Effect of the drugs on cell viability in terms of metabolic activity was assessed by MTT assay, as previously reported. Cells were pre-incubated overnight in 96-well plates (6 × 10^3 cells/well in 100 μL/well) in the correspondent culture media. Then, the medium was replaced with fresh 10% FBS/RPMI medium containing the investigated compounds (100 μL/well), and cells were incubated for 48 h, unless otherwise stated. Next, 10 μL/well of (3-(4,5-dimethylthiazol-2-yl)-2,5-diphenyltetrazolium bromide) reagent (MTT, 5 mg/mL) was added. After 2–4 h of incubation, the media was aspirated and the plates were dried. Then, 50 μL/well of DMSO was added to each well and the cell viability was measured using an Infinite F200PRO reader (TECAN, Männedorf, Switzerland). Results were calculated using the GraphPad Prism software v.9.1.1 (GraphPad Software, San Diego, CA, USA) and are represented as IC50 of the compounds calculated using the cells treated with the solvent alone as a control.

22Rv1 cells [1] = test: MTT assay, 22Rv1 cells; type: cell-based, human; conditions: prostate cancer cells, 48 h of treatment, mean ± SD
Protocol: as §1, §2, §3

DU145 cells = test: MTT assay, DU145 cells; type: cell-based, human; conditions: prostate cancer cells, 48 h of treatment, mean ± SD
Protocol: as §1, §2, §3

LNCaP cells = test: MTT assay, LNCaP cells; type: cell-based, human; conditions: prostate cancer cells, 48 h of treatment, mean ± SD
Protocol: as §1, §2, §3

PNT2 cells = test: MTT assay, PNT2 cells; type: cell-based, human; conditions: non-cancer cells, 48 h of treatment, mean ± SD
Protocol: as §1, §2, §3

MRC-9 cells = test: MTT assay, MRC-9 cells; type: cell-based, human; conditions: non-cancer cells, 48 h of treatment, mean ± SD
Protocol: as §1, §2, §3

HEK-293 cells = test: MTT assay, HEK-293 cells; type: cell-based, human; conditions: non-cancer cells, 48 h of treatment, mean ± SD
Protocol: as §1, §2, §3

22Rv1 cells [2] = test: Trypan blue-based viability assay; type: cell-based, human; conditions: 48 h of treatment, mean ± SD, read-out: IC50, trypan blue staining assay
Protocol: The effect of the drugs on cell viability in terms of cellular membrane integrity was evaluated by the trypan blue exclusion assay as described before. In brief, cells (0.2 × 10^6 cells/well) were seeded in 6-well plates and incubated overnight, and the media was replaced with fresh media (1 mL/well) containing drugs at indicated concentrations. After treatment for 48 h, the cells were harvested by trypsinization, stained with trypan blue and the viability was measured using an automatic Beckman Coulter Vi-CELL (Beckman Coulter, Krefeld, Germany). Trypan blue-positive cells were assumed to have damaged cellular membrane (i.e., dead), whereas trypan blue-negative cells were considered to have an intact cellular membrane (i.e., alive).

22Rv1 cells [3] = test: DNA fragmentation (apoptosis, sub-G1), flow cytometry with PI staining; type: cell-based, human; conditions: treated at IC50 (MTT assay) for 48 h, mean ± SD
Protocol: The effects on cell cycle progression and DNA fragmentation were analyzed by flow cytometry using PI staining, as described before. Cells (2 × 10^5 cells/well) were pre-incubated overnight in 6-well plates and then treated with the investigated drugs in fresh culture media (2 mL/well) for 48 h. Cells were harvested by trypsinization, fixed in 70% EtOH, stained with PI solution and analyzed by FACS Calibur (BD Bioscience, San Jose, CA, USA). The results were quantified using BD Bioscience Cell Quest Pro v.5.2.1. software (BD Bioscience). The cells appearing as a sub-G1 population (containing fragmented DNA) were considered to be apoptotic.

[4] = system: non-cancer cell lines versus cancer cell lines; test: Selectivity index from MTT IC50s; type: cell-based, human; conditions: MTT; for Selectivity index, IC50 (non-prostate) / IC50 (prostate): mean IC50 MRC-9 and HEK-293 versus mean IC50 prostate cancer cell lines plus PNT2; for Selectivity index, IC50 (non-cancer) / IC50 (cancer): mean IC50 non-cancer cell lines versus mean IC50 cancer cell lines
Protocol: as §3, with “Next, SAR analysis was performed to identify the structural elements that are beneficial for anticancer activity of the fascaplysin-related molecules. Considering the complex and heterogeneous nature of tumors even within the same patient, we used calculated mean IC50 values of each drug in all prostate cancer cells for further analysis (Figure 2A). To identify the drug candidates with the highest therapeutic potential, the selectivity index (SI) was calculated as mean IC50 in non-cancer cells versus mean IC50 in cancer cells (Figure 2B), or as a mean IC50 in non-cancer (MRC-9 and HEK293) cells versus mean IC50 in prostate cells (cancer PC-3, 22Rv1, DU145, LNCaP and non-cancer PNT2 cells) (Figure 2C). Finally, to estimate the effects on cellular metabolism, we compared the activity evaluated by using trypan blue assay versus MTT assay (Figure 2D). Effect” for “Effect”, “2-4” for “2–4”, “F200PRO” left out

[5] = system: double-stranded calf thymus DNA; test: Thiazole orange displacement (DNA intercalation) assay; type: binding; conditions: 1 µM calf thymus DNA base pairs, 2 µM thiazole orange; 7 min at room temperature; mean ± SD
Protocol: DNA intercalation activity of the compounds was calculated as an ability to displace thiazole orange (TO) from the double-stranded DNA. For this experiment, a mixture (100 µL) containing 1 µM of double-stranded calf thymus DNA (recalculated as a concentration of base pairs) and 2 µM of thiazole orange (TO) solved in water was prepared. Then, the investigated compounds were added up to final concentrations of 0.39–25 µM; DMSO concentration in the samples was <0.02%. Propidium iodide (PI, positive control) was added up to final concentrations of 0.039–2.5 uM. After 7 min of incubation at room temperature, TO fluorescence was monitored using a multimodal plate reader TECAN Spark (Tecan Group Ltd., Männedorf Switzerland) at the excitation λ = 480 nm; fluorescence was recorded at λ = 530 nm. The bandwidth was 10 nm. The concentration of the drug that caused a decrease in TO fluorescence by 50% (EC50) was determined by approximating the experimental data using a non-linear regression algorithm and calculated using the GraphPad Prism software v.9.1.1 (GraphPad Software, San Diego, CA, USA).

[6] = system: prostate cancer cell lines (PC-3, 22Rv1, DU145 and LNCaP); test: MTT assay, mean over four prostate cancer cell lines; type: cell-based; conditions: Homo sapiens; mean of MTT IC50 in PC-3, 22Rv1, DU145 and LNCaP; from Table S1 values; read-out: mean IC50 in cancer cells
Protocol: as §3, with “Next, SAR analysis was performed to identify the structural elements that are beneficial for anticancer activity of the fascaplysin-related molecules. Considering the complex and heterogeneous nature of tumors even within the same patient, we used calculated mean IC50 values of each drug in all prostate cancer cells for further analysis (Figure 2A). To identify the drug candidates with the highest therapeutic potential, the selectivity index (SI) was calculated as mean IC50 in non-cancer cells versus mean IC50 in cancer cells (Figure 2B), or as a mean IC50 in non-cancer (MRC-9 and HEK293) cells versus mean IC50 in prostate cells (cancer PC-3, 22Rv1, DU145, LNCaP and non-cancer PNT2 cells) (Figure 2C). Finally, to estimate the effects on cellular metabolism, we compared the activity evaluated by using trypan blue assay versus MTT assay (Figure 2D). Effect” for “Effect”, “2-4” for “2–4”, “F200PRO” left out

Structure (SMILES) | % of sub-G1 apoptotic cells (at IC50) (22Rv1 cells [3]) [%] | Selectivity index, IC50 (non-prostate) / IC50 (prostate) [4] | Selectivity index, IC50 (non-cancer) / IC50 (cancer) [4] | IC50 (PC-3 cells; Homo sapiens, PC-3) [nM] | IC50 (22Rv1 cells [1]; Homo sapiens, 22Rv1) [nM] | IC50 (DU145 cells; Homo sapiens, DU-145) [nM] | IC50 (LNCaP cells; Homo sapiens, LNCaP) [nM] | IC50 (PNT2 cells; Homo sapiens, PNT2) [nM] | IC50 (MRC-9 cells; Homo sapiens, MRC9) [nM] | IC50 (HEK-293 cells; Homo sapiens, HEK293) [nM] | IC50 (22Rv1 cells [2]; Homo sapiens) [nM] | IC50 [6] [nM] | other results
N.N.[Cl][Pt][Cl] [Cis, Cisplatin, reference compound] | 14.7±3.43 | 0.92 | 1.23 | – | – | – | – | – | – | – | – | – | IC50 (PC-3 cells): 34600 nM; IC50 (22Rv1 cells [1]): 990 ± 290 nM; IC50 (DU145 cells): 1320 ± 530 nM; IC50 (LNCaP cells): 2750 ± 550 nM; IC50 (PNT2 cells): 9410 ± 3120 nM; IC50 (MRC-9 cells): 6750 ± 1990 nM; IC50 (HEK-293 cells): 6440 ± 1770 nM; IC50 (22Rv1 cells [2]): 190 ± 44 nM
O=C1c2ccc(Br)cc2-[n+]2ccc3c([nH]c4ccccc43)c21 [Compound 3, 3-bromofascaplysin] | 23.3±9.19 | 0.59 | 0.41 | 10000 ± 6750 | 417 ± 60 | 1510 ± 130 | 1250 ± 380 | 727 ± 60 | 2300 ± 870 | 1010 ± 71 | 240 ± 41 | 3300 | EC50 [5]: 700 ± 30 nM
O=C1c2cc(Br)ccc2-[n+]2ccc3c([nH]c4ccc(Br)cc43)c21.[Cl-] [Compound 10, 12,13-dihydro-2,9-dibromo-13-oxopyrido[1,2-a:3,4-b’]diindol-5-ium chloride] | 24.0±5.37 | 2.62 | 1.78 | 1830 ± 100 | 490 ± 39 | 913 ± 116 | 1130 ± 803 | 614 ± 98 | 4960 ± 386 | 250 ± 34 | 215 ± 36 | 1090 | –
O=C1c2cc(Br)ccc2-[n+]2ccc3c([nH]c4ccc(I)cc43)c21.[Cl-] [Compound 11, 12,13-dihydro-2-bromo-9-iodo-13-oxopyrido[1,2-a:3,4-b’]diindol-5-ium chloride] | 13.1±2.86 | 9.15 | 5.55 | 3140 ± 980 | 2330 ± 870 | 1350 ± 318 | 1170 ± 84 | 860 ± 72 | 31900 ± 7070 | 480 ± 52 | 1330 ± 277 | 2000 | –

— PMC8949187, “Study of Structure–Activity Relationships of the Marine Alkaloid Fascaplysin and Its Derivatives as Potent Anticancer Agents” (Marine Drugs, 2022)
